Reference: US20090258914A1, “Inhibitor of Anti-Apoptotic Proteins” (Burnham Institute for Medical Research, priority 2008, published 2009)

Columns and labels:
BCL-xL = biological target: T1, BCL-xL (Homo sapiens, UniProt Q07817); assay: Dissociation constant (Kd) / binding to BCL-xL
T1 construct: Recombinant full length BCL-XL was produced from a pET-19b (Novagen) plasmid construct; poly-His (N); made in house; host or cells: E. coli BL21
Procedure: The inhibition was also evaluated by measuring dissociation constant (Kd) values for compound A in comparison with some related compounds 1, 2, and 3.
For all NMR experiments, BCL-xL was exchanged into 50 mM phosphate buffer at pH 7.5 and measurements were performed at 30° C. 2D [^15N,^1H]-HSQC spectra for BCL-xL were measured with 0.5 mM samples of ^15N-labeled protein. All experiments were performed with a 600 MHz Bruker Avance spectrometer, both equipped with either a TXI probe or a TCI cryoprobe. In all experiments, dephasing of residual water signals was obtained with a WATERGATE sequence. In order to test the ability of test compounds to bind to Bcl-xL, a 25 μM sample of the protein was prepared and 1D ^1H NMR spectra were collected in absence and presence of test compounds. By observing the aliphatic region of the spectra, binding can be readily detected in these simple experiments due to chemical shift changes in active site methyl groups of Ile, Leu, Thr, Val or Ala (region between 0.8 and 0.3 ppm).

Plasma stability = format: in vitro ADME
Microsomal stability = format: in vitro ADME
A549L = assay: Cell viability IC50, A549L; format: cell-based; details: mean ± standard deviation of three independent experiments
Procedure: (§1) The effectiveness of compound A was also evaluated, in comparison with compound 1 shown in Table 1, by determining mean IC50 values, which were measured for three independent experiments (each in triplicate) for compounds 1 and A. All points were normalized to control as a percentage of cell viability and statistics were completed with Graphpad Prism software.

H460 = assay: Cell viability, H460; format: cell-based; details: for IC50: Homo sapiens, NCI-H460, cell viability, mean ± standard deviation of three independent experiments
Procedure: (§2) The inhibition information for cells H460 and PC3ML is also shown by FIG. 2. […] The structures of compounds 1-3 are shown in Table 1, above, and the structure of compound 4 is as follows:
as §1

RS11846S = assay: Cell viability IC50, RS11846S; format: cell-based; details: mean ± standard deviation of three independent experiments
Procedure: as §1

PC3ML = assay: Cell viability, PC3ML; format: cell-based; details: for IC50: PC3-ML, cell viability, mean ± standard deviation of three independent experiments
Procedure: as §2, §1

B6Bcl2 mice [1] = assay: Spleen shrinkage / in vivo efficacy in B6Bcl2 transgenic mice; parameters: species or system mouse; details: for in vivo activity / order of potency in terms of in vivo efficacy: B6BCL-2 transgenic mouse
Source text: In the same model, another known compound apogossypolone was not effective. Gossypol is described, e.g., in U.S. Pat. No. 7,186,708. Apogossypol is described, e.g., in Meyers A. I.; Willemsen J. J., Tetrahedron Letters, vol. 37, No. 6, February, […], pp. 791-792.
(§3) Compound A was given to B6Bcl2 mice at a daily dose of […] for 3 days through oral gavage. […] Both compound A and the negative control were preliminarily dissolved in PBS. After 3 days, the spleens of the animals were removed and weighed.
(§4) In parallel experiments, compound A was also administered intraperitoneally at […], as were some related compounds, such as compounds 1 and 2 shown in Table 1, above. In these experiments, after 24 hours, the spleens of the animals were removed and weighed.
(§5) The results of efficacy of compound A administered intraperitoneally were also compared with the results obtained when compound A was administered orally. […] Accordingly, compound A can be administered in both ways, orally or intraperitoneally. […] It was also shown that compound A can be administered safely.

B6Bcl2 mice [2] = assay: Safety in B6Bcl2 mice (weight loss, physical exam); format: in vivo, mouse; details: regardless of route of administration (oral or intraperitoneal)
Procedure: as §3, §4, §5

[3] = FIG. 2, in comparison with compounds 1-4

T1 sequence (Q07817 whole entry, species assumed): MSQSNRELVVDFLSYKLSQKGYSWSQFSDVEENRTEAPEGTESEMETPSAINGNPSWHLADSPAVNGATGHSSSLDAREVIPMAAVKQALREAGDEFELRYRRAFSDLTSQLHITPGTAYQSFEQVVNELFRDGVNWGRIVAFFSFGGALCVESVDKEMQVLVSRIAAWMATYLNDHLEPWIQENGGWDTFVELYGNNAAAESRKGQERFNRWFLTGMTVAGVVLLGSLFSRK

Compound	Kd (BCL-xL) [nM]	Plasma Stability, % (45 minutes) (Plasma stability) [%]	Microsomal Stability, % (45 minutes) (Microsomal stability) [%]	IC50 (A549L) [nM]	IC50 (H460) [nM]	IC50 (RS11846S) [nM]	IC50 (PC3ML) [nM]	in vivo activity (B6Bcl2 mice [1])	order of potency in terms of in vivo efficacy (B6Bcl2 mice [1])	further results
CC(C)C(C(=O)O)N1C(=O)/C(=C\c2ccc(Br)cc2)SC1=S (stereo not drawn) [Compound 1]	1100	56	54	12200 ± 5900	3000 ± 2400	6500 ± 10000	60900 ± 1600	–	–	–
CC(C)C(C(=O)O)N1C(=O)/C(=C\c2ccc(-c3ccccc3)cc2)SC1=S (stereo not drawn) [Compound 2]	160	59	22	–	–	–	–	–	–	–
CC(=C\c1ccccc1)/C=C1/SC(=S)N(C(C(=O)O)C(C)C)C1=O (stereo not drawn) [Compound 3]	11800	51	75	–	–	–	–	–	–	–
O=C(O)CN1C(=O)S/C(=C\c2ccc(-c3ccccc3)cc2)C1=O [Compound A, (Z)-2-(5-(biphenyl-4-ylmethylene)-2,4-dioxothiazolidin-3-yl)acetic acid]	14000	58	72	800 ± 300	500 ± 300	400	700 ± 600	equal to, or better than, known compounds gossypol and apogossypol	compound A>apogossypol=gossypol	influence on the cell viability (H460; [3]): largest influence on the cell viability; influence on the cell viability (PC3ML; [3]): largest influence on the cell viability; shrinkage of spleen (B6Bcl2 mice [1]; either route, orally or intraperitoneally): induced shrinkage of spleen; degree of shrinkage of spleen, intraperitoneal injection higher than oral dosing (B6Bcl2 mice [1]; intraperitoneal vs oral, FIG. 4): about 100%; degree of shrinkage of spleen higher than that induced by compounds 1 or 2 (B6Bcl2 mice [1]; intraperitoneally at 60 mmol/kg, spleens weighed after 24 hours, FIG. 3): about 40%; weight loss or signs of toxicity via physical exam (B6Bcl2 mice [2]): no weight loss or signs of toxicity
Cc1cc2c(C(C)C)c(O)c(O)cc2c(O)c1-c1c(C)cc2c(C(C)C)c(O)c(O)cc2c1O [apogossypol]	–	–	–	–	–	–	–	–	compound A>apogossypol=gossypol	–
apogossypolone	–	–	–	–	–	–	–	not effective	–	–
